ChEMBL document CHEMBL2163318, “Phenylalanine derivatives as GPR142 agonists for the treatment of type II diabetes” (Bioorg Med Chem Lett, 2012)
The source made the active and inactive calls. The rule behind the calls is not given here.

Legend:
[1] = Metabolic stability of human microsomes assessed as compound turnover at 1 uM after 30 mins by LC-MS analysis; format: ADME, Microsome; details: read-out: Drug metabolism
[2] = Metabolic stability of rat microsomes assessed as compound turnover at 1 uM after 30 mins by LC-MS analysis; format: ADME, Microsome; details: read-out: Drug metabolism
[3] = molecular target: T1, Probable G-protein coupled receptor 142 (Homo sapiens, UniProt Q7Z601); assay: Agonist activity at human GPR142 expressed in HEK293 cells assessed as inositol phosphate accumulation after 1 hr by scintillation counting; format: functional, cell-based
T1 sequence (Q7Z601 whole entry): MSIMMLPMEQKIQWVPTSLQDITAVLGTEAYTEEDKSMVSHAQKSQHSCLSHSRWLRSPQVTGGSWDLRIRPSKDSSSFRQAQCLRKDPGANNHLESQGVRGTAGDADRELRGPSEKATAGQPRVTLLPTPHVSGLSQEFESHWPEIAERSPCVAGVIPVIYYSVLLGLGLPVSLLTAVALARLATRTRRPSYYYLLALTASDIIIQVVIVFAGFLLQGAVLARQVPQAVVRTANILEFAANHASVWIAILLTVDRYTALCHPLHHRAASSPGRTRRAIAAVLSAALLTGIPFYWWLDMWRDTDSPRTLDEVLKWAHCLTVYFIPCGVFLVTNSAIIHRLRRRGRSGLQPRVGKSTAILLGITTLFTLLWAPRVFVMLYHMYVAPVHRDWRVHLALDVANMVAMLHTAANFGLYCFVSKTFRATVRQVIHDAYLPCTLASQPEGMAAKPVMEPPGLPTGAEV

[4] = molecular target: T2, Probable G-protein coupled receptor 142 (Homo sapiens) (UniProt Q7Z601); assay: Agonist activity at human GPR142 expressed in HEK293 cells assessed as inositol phosphate accumulation at 10 uM after 1 hr by scintillation counting; format: functional, cell-based
T2 sequence (whole entry): T1 sequence (Q7Z601 whole entry)

[5] = molecular target: T2, Probable G-protein coupled receptor 142 (Homo sapiens); assay: Agonist activity at human GPR142 expressed in HEK293 cells assessed as inositol phosphate accumulation after 1 hr by scintillation counting in presence of 100% serum; format: functional, cell-based
[6] = Clearance in rat; format: ADME, organism-based; details: in vivo
[7] = Clearance in rat at 0.5 mg/kg, iv; format: ADME, organism-based; parameters: dose 0.5 mg/kg, route intravenous; details: in vivo
[8] = Oral bioavailability in rat at 2 mg/kg; format: ADME, organism-based; details: in vivo
[9] = Half life in rat at 0.5 mg/kg, iv; format: ADME, organism-based; parameters: dose 0.5 mg/kg, route intravenous; details: in vivo
[10] = Mean residence time in rat at 2 mg/kg, po; format: ADME, organism-based; parameters: dose 2 mg/kg, route oral; details: in vivo
[11] = Volume of distribution at steady state in rat at 0.5 mg/kg, iv; format: ADME, organism-based; parameters: dose 0.5 mg/kg, route intravenous; details: in vivo, read-out: Vdss
[12] = AUC in rat at 2 mg/kg, po; format: ADME, organism-based; parameters: dose 2 mg/kg, route oral; details: plasma
[13] = AUC in rat at 0.5 mg/kg, iv; format: ADME, organism-based; parameters: dose 0.5 mg/kg, route intravenous; details: plasma
[14] = molecular target: T3, Probable G-protein coupled receptor 142 (Mus musculus) (UniProt Q7TQN9); assay: Partial agonist activity at mouse GPR142 expressed in HEK293 cells relative to control; format: functional, cell-based
T3 sequence (whole entry): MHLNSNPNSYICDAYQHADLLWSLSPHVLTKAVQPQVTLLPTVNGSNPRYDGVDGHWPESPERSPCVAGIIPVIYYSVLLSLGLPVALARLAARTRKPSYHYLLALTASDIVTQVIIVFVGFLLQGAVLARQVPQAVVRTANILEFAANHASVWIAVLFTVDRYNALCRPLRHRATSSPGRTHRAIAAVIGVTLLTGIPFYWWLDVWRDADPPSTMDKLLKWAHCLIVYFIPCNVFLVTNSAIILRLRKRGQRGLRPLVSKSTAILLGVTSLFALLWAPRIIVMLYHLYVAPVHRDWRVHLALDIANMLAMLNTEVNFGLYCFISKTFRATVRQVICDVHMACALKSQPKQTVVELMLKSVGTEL

[15] = Volume of distribution at steady state in rat at 0.67 mg/kg, iv; format: ADME, organism-based; parameters: dose 0.67 mg/kg, route intravenous; details: in vivo, read-out: Vdss
[16] = AUC in rat at 0.67 mg/kg, iv; format: ADME, organism-based; parameters: dose 0.67 mg/kg, route intravenous; details: plasma
[17] = Half life in rat at 0.67 mg/kg, iv; format: ADME, organism-based; parameters: dose 0.67 mg/kg, route intravenous; details: in vivo
[18] = Clearance in rat at 0.67 mg/kg, iv; format: ADME, organism-based; parameters: dose 0.67 mg/kg, route intravenous; details: in vivo

Compound | metabolised at 0.5 h, 1 µM [1] [%] | metabolised at 0.5 h, 1 µM [2] [%] | EC50 [3] [nM] | Emax [4] [%] | other results
O=C(Nc1cc(-c2ccncc2)c[nH]c1=O)[C@H](Cc1ccccc1)NCc1c[nH]cn1 | 60 | 96 | 110 | 107 | –
COc1ncc(-c2ccncc2)cc1NC(=O)[C@H](Cc1ccccc1)NC1(c2ccccn2)CC1 | 15 | 54 | 350 | 123 | clearance [6]: 21.7 mL/min/kg; Activity [5]: inactive
O=C(Nc1cc(-c2ccncc2)c[nH]c1=O)[C@H](Cc1ccccc1)NC1(c2ncccn2)CC1 | 21 | 67 | 99 | 114 | –
O=C(Nc1cc(-c2ccncc2)c[nH]c1=O)[C@H](Cc1ccccc1)NCc1ncccn1 | 90 | 99 | 440 | 95 | –
CC(C)(N[C@@H](Cc1ccccc1)C(=O)Nc1cc(-c2ccncc2)c[nH]c1=O)c1ccccn1 | > 95 | 100 | 9450 | 57 | –
Cc1nc(C2(N[C@@H](Cc3ccccc3)C(=O)Nc3cc(-c4ccncc4)c[nH]c3=O)CC2)cs1 | 64 | 74 | 200 | 106 | –
O=C(O)Cn1cc(-c2ccncc2)cc(NC(=O)[C@H](Cc2ccccc2)NC2(c3ccccn3)CC2)c1=O | 10 | 12 | 260 | 83 | clearance [6]: 83.3 mL/min/kg
Cn1cncc1-c1nnc(NC(=O)[C@H](Cc2ccccc2)NCc2cscn2)s1 | 19 | 35 | 180 | 86 | clearance [7]: 28.3 mL/min/kg; bioavailability [8]: 19%
C[C@@H](N[C@@H](Cc1ccccc1)C(=O)Nc1cc(-c2ccncc2)c[nH]c1=O)c1ccccn1 | 95 | 95 | 6000 | 60 | –
O=C(Nc1cc(-c2ccncc2)c[nH]c1=O)[C@H](Cc1ccccc1)NCC1CCS(=O)(=O)CC1 | 21 | 58 | 20000 | 91 | –

More lines, main results first:

metabolised at 0.5 h, 1 µM [1] [%] | metabolised at 0.5 h, 1 µM [2] [%] | EC50 [3] [nM] | Emax [4] [%] | Compound | other results
19 | 67 | 2230 | 78 | O=C1CC[C@H](CN[C@@H](Cc2ccccc2)C(=O)Nc2cc(-c3ccncc3)c[nH]c2=O)N1 | –
90 | 100 | 210 | 92 | Cn1ccc(CN[C@@H](Cc2ccccc2)C(=O)Nc2cc(-c3ccncc3)c[nH]c2=O)n1 | –
68 | 99 | 930 | – | O=C(Nc1cc(-c2ccncc2)c[nH]c1=O)[C@H](Cc1ccccc1)NCc1cscn1 | Activity [5]: Active
83 | 98 | 390 | 78 | O=C(Nc1cc(-c2ccncc2)c[nH]c1=O)[C@H](Cc1ccccc1)NC[C@H]1CCCO1 | –
100 | 100 | 1320 | 76 | O=C(Nc1cc(-c2ccncc2)c[nH]c1=O)[C@H](Cc1ccccc1)NCCc1ccccn1 | –
85 | 95 | 730 | 81 | CCC(N[C@@H](Cc1ccccc1)C(=O)Nc1cc(-c2ccncc2)c[nH]c1=O)c1ccccn1 (mixture of isomers) | –
29 | 57 | 390 | 74 | O=C(Nc1nnc(-c2cncs2)s1)[C@H](Cc1ccccc1)NCc1cscn1 | clearance [7]: 40 mL/min/kg; bioavailability [8]: 32%
66 | 80 | 1060 | 84 | O=C(Nc1cc(-c2ccncc2)c[nH]c1=O)[C@H](Cc1ccccc1)NCCC1CCOCC1 | –
95 | 95 | 95 | 155 | O=C(Nc1cc(-c2ccncc2)c[nH]c1=O)[C@H](Cc1ccccc1)NCc1ccccn1 | –
14 | 10 | 86 | 115 | O=C(Nc1nnc(-c2ccncc2)s1)[C@H](Cc1ccccc1)NCc1cscn1 | half-life [9]: 1.2 h; Activity [5]: Active; MRT [10]: 1.93 h; Vd [11]: 0.21 L/kg; clearance [7]: 7.33 mL/min/kg; bioavailability [8]: 10%; AUC [12]: 480 ng·h/mL; AUC [13]: 1240 ng·h/mL
78 | 95 | 2200 | 93 | Cc1cc(CN[C@@H](Cc2ccccc2)C(=O)Nc2cc(-c3ccncc3)c[nH]c2=O)no1 | –
58 | 66 | 36 | 96 | CNc1cc(-c2nnc(NC(=O)[C@H](Cc3ccccc3)NCc3cscn3)s2)ccn1 | Activity [5]: inactive; Emax [14]: 37%; MRT [10]: 2.36 h; Vd [15]: 0.23 L/kg; AUC [16]: 3030 ng·h/mL; half-life [17]: 1.2 h; bioavailability [8]: 36%; AUC [12]: 1730 ng·h/mL; clearance [18]: 3.83 mL/min/kg
100 | 99 | 220 | 107 | C[C@H](N[C@@H](Cc1ccccc1)C(=O)Nc1cc(-c2ccncc2)c[nH]c1=O)c1ccccn1 | –
19 | 22 | 280 | 118 | CN(C)CCn1cc(-c2ccncc2)cc(NC(=O)[C@H](Cc2ccccc2)NC2(c3ccccn3)CC2)c1=O | clearance [6]: 51.7 mL/min/kg
